The data set can be described thus: Human HepG2 cell viability assay in 384 well format. The settings on record: HepG2 cells, read-out: Inhibition. Set-up: dose 125 nL, time 70.5 hour; concentration not given beside the values. The class given is toxicity, cell-based.
As for `Cc1nn(C)cc1-c1ccnc(N(C)Cc2cccs2)n1`, the cytotoxicity at 70.5 h worked out at 2.52%.

As to `c1cnn(CC2CN(c3ncnc4[nH]ccc34)CCO2)c1` (centres undefined), the cytotoxicity at 70.5 h is -0.974%.

For `CCc1cc(N(C)Cc2ccnc(C)c2)n2nc(C)c(C)c2n1`, the cytotoxicity at 70.5 h was determined as 40.9%.

On to `CN1CCOC(CN(C(=O)COc2ccccc2)c2nccs2)C1` (centres undefined), for which the cytotoxicity at 70.5 h was -4%.

In the case of `CCOc1ccnc(N2CCN(C(=O)CCc3ccncc3)CC2)n1`, the cytotoxicity at 70.5 h came out at 0.226%.

For `CC(C)(O)CN1CCN(C(=O)COCc2ccccc2Cl)CC1`, the cytotoxicity at 70.5 h is -0.918%.

For the molecule `O=C(NCC(F)(F)F)c1ccc(-n2cccn2)nn1`, the cytotoxicity at 70.5 h is 5.82%.

Take `Cc1cc(C)n(C2CN(CC(=O)NC3CCOCC3)C2)n1`: the cytotoxicity at 70.5 h was -0.827%.

For the molecule `Cc1nc2c(c(N(C)Cc3ccccc3-n3cccn3)n1)CCNCC2`, the cytotoxicity at 70.5 h is 26.5%.

On to `CN1CCCCC1Cc1nc(Cc2cccc(F)c2)no1` (centres undefined), for which the cytotoxicity at 70.5 h was -7.83%.

For the molecule `CNC(=O)c1cccc(CN2CCC(N(C)Cc3ncc(C)o3)C2)c1` (centres undefined), the cytotoxicity at 70.5 h was found to be 22.2%.

On to `CC(C)N1C[C@@H]2CN(C(=O)NCc3ccccc3)CCC[C@]2(C(=O)O)C1`, for which the cytotoxicity at 70.5 h is -4.97%.

Consider `Cc1ccc(OCCCNC(=O)NC(C)c2nncn2C)cc1` (centres undefined), for which the cytotoxicity at 70.5 h is -3.66%.

As for `CCc1ccc(CN2CCC3(CC2)CC(N2CCN(C)CC2)CO3)cc1` (centres undefined), the cytotoxicity at 70.5 h stood at 7.28%.

As to `N#Cc1cccc(N2CC3(CCN(C(=O)c4cccnc4)C3)CC2=O)c1` (centres undefined), the cytotoxicity at 70.5 h was -0.309%.

Take `COCC(=O)N[C@H](C)c1onc(-c2ccc(F)cc2)c1C(=O)O`: the cytotoxicity at 70.5 h was -6.83%.

For the molecule `O=C(COc1cc(Cl)cc(Cl)c1)NCc1nncn1C1CC1`, the cytotoxicity at 70.5 h was -8.34%.

Turning to `CCc1ncc2c(n1)CN(Cc1nc(-c3ccsc3)no1)CC2`, the cytotoxicity at 70.5 h was -6.7%.

Turning to `Cc1nc(C2CCCN2Cc2cc(Cl)c3c(c2)OCO3)no1` (centres undefined), the cytotoxicity at 70.5 h was -4.26%.

In the case of `N[C@@H]1CCN(Cc2ccc(-c3nc(-c4cccnc4)cc(=O)[nH]3)cc2)C1`, the cytotoxicity at 70.5 h is -10.8%.

Take `CN1CCO[C@H]2CN(C(=O)c3ccoc3)C[C@H]21`: the cytotoxicity at 70.5 h was -7.03%.

`Cn1cnnc1CN1CCC2(CCC(=O)N(Cc3ccccn3)C2)CC1`: the cytotoxicity at 70.5 h was -6.09%.

With `CC(C(N)=O)n1nc(-c2cccs2)cc(N)c1=O` (centres undefined), the cytotoxicity at 70.5 h was -3.21%.

Take `COc1c(Br)c(C(=O)NC2CCCCC2)nn1C`: the cytotoxicity at 70.5 h is -15%.

With `Cc1cccc(NC(=O)CN(C)C(=O)c2ccc(OC(C)C)nc2)n1`, the cytotoxicity at 70.5 h is -2.88%.

`CC(C)Nc1nc(-c2ccccc2)nc2c1CCN(C(=O)CC#N)CC2`: the cytotoxicity at 70.5 h was -3.92%.

Turning to `O=C1CN(CCCNC(=O)Nc2ccccn2)CCN1`, the cytotoxicity at 70.5 h amounted to 1.68%.

Consider `CN(CC1(O)CCCN(CCC2CCCCC2)C1=O)C1CCOCC1` (centres undefined), for which the cytotoxicity at 70.5 h was -5.64%.

Turning to `COc1ccc2c(c1)OCC(Cc1ccc(C)nc1N)C2` (centres undefined), the cytotoxicity at 70.5 h came out at 13.9%.

For the molecule `O=C(NCC1Cn2nnc(-c3ccsc3)c2CO1)N1CCCC1` (centres undefined), the cytotoxicity at 70.5 h is -7.85%.

Take `COc1ccc(NC(=O)N2CCC3(CC2)NC(=O)CC3C(=O)O)cc1Cl` (centres undefined): the cytotoxicity at 70.5 h amounted to 13.1%.

For `c1cc(CN2CCC3(CCOCC3COCC3CC3)CC2)co1` (centres undefined), the cytotoxicity at 70.5 h is -4.78%.

Regarding `O=C(NCC(O)c1ccc(F)cc1)C1CCN(C2CCCCC2)CC1` (centres undefined), the cytotoxicity at 70.5 h is -7.05%.

With `CCNC(=O)CCN1CCC(c2cc(N3CCOCC3)nc(C)n2)CC1`, the cytotoxicity at 70.5 h was -7.37%.

For the molecule `CC(O)CN(C)C(=O)CCNC(=O)OC(C)(C)C` (centres undefined), the cytotoxicity at 70.5 h was -3.37%.

As for `COc1ccc(CC(=O)N2CCC3(CC2)CCN(CC(C)C)C3=O)cc1`, the cytotoxicity at 70.5 h was -10.5%.

As for `Cc1nccn1C1CCCN(C(=O)c2ccc(-n3cccn3)nc2)C1` (centres undefined), the cytotoxicity at 70.5 h came out at 0.896%.

Take `CN(C)c1ccc(CC(=O)N2C[C@H](C3CC3)[C@@H](N)C2)cc1`: the cytotoxicity at 70.5 h was 0.366%.

Take `CCOC(=O)N1CCN(C(=O)CCn2ccc3c(OC)cccc32)CC1`: the cytotoxicity at 70.5 h is -9.78%.

Turning to `CCn1nc(NC(=O)Cn2ccc(C(C)=O)n2)c2ccccc21`, the cytotoxicity at 70.5 h was determined as 26.9%.

As for `COCC(=O)Nc1ccc(-c2noc([C@@H]3CCCN3CC(C)C)n2)cn1`, the cytotoxicity at 70.5 h was found to be 10.2%.

Take `CCCc1cncnc1N1CCCC2(CCC(=O)N(C3CCCC3)C2)C1` (centres undefined): the cytotoxicity at 70.5 h was -9.78%.

As for `Cc1ncsc1CCN(C)C(=O)C(c1cccnc1)N1CCOCC1` (centres undefined), the cytotoxicity at 70.5 h is -5.13%.

For the molecule `COc1ccc(CNC(=O)Nc2cccnc2N2CCCC2)cc1`, the cytotoxicity at 70.5 h turned out to be 20.6%.

With `Cc1noc(C(C)C)c1C(=O)NS(=O)(=O)c1ccc2c(c1)OCCCO2`, the cytotoxicity at 70.5 h was -9.35%.

As for `Cc1occc(=O)c1OCc1noc(C(=O)NC2CCCC2)n1`, the cytotoxicity at 70.5 h is -16.2%.

`CCN(CC)C(=O)NCCc1ccn(-c2ccccc2)n1`: the cytotoxicity at 70.5 h stood at 11%.

Turning to `COc1cccc([C@@H]2CCN(Cc3ccc4ccccc4n3)C[C@H]2O)c1`, the cytotoxicity at 70.5 h was -8.06%.

Regarding `Cc1nc(C(C)C)ncc1C(=O)N1CCCC(N2CCCC2)C1` (centres undefined), the cytotoxicity at 70.5 h stood at 6.69%.

For `CC(=O)N1CCCC(c2ccc(C(=O)NC3CCCC3)cn2)C1` (centres undefined), the cytotoxicity at 70.5 h is -5.66%.

Take `CC(=O)c1cn(CC(=O)N2CCCC(O)(CO)C2)c2ccccc12` (centres undefined): the cytotoxicity at 70.5 h is 28%.

With `Cc1nc(N2CCN(C(=O)c3ccccc3)CC2)cc(-n2ccnc2)n1`, the cytotoxicity at 70.5 h is 10.7%.

Turning to `CCc1cc(N(C)Cc2noc(CC(C)C)n2)ncn1`, the cytotoxicity at 70.5 h came out at 21.2%.

For `Cn1nc(CNC(=O)c2ccc3nsnc3c2)c2c1CCOC2`, the cytotoxicity at 70.5 h was -4.6%.

`CN(Cc1cnn(C)c1)C(=O)CN1CCCCC1Cn1cncn1` (centres undefined): the cytotoxicity at 70.5 h was -7.41%.

Consider `Cc1ccc(S(=O)(=O)c2ncccc2CN2CCN(CCO)CC2)cc1`, for which the cytotoxicity at 70.5 h was -30.6%.

`CCn1cnnc1CNC(=O)NC(C)C(C)C` (centres undefined): the cytotoxicity at 70.5 h is -17.7%.

For the molecule `COc1ccccc1C(NC(=O)C1CCC1)c1noc(C)n1` (centres undefined), the cytotoxicity at 70.5 h is -5.9%.

Consider `COc1ccc(C)cc1C(C)NC(=O)CCn1cncn1` (centres undefined), for which the cytotoxicity at 70.5 h was -5.61%.

Turning to `Cc1nn(CCC(=O)N2CCN(Cc3cnn(C)c3C)CC2)c(C)c1Br`, the cytotoxicity at 70.5 h was 1.42%.

Consider `Cc1cnn(CCNCc2ccc(OCc3cccnc3)cc2)c1`, for which the cytotoxicity at 70.5 h was -4.14%.

On to `CC1=CC(C)(C)N(CN2C(=O)c3ccccc3C2=O)c2ccc(C)cc21`, for which the cytotoxicity at 70.5 h came to 7.06%.

Turning to `Cc1cncc(C(=O)N2CCCC(O)(CN(C)C)CC2)c1` (centres undefined), the cytotoxicity at 70.5 h is 7.68%.

With `O=C1CC(c2cccs2)Cc2[nH]c(=O)c(C(=O)NC3CCCC3)cc21` (centres undefined), the cytotoxicity at 70.5 h was -12.4%.

Turning to `COc1ncccc1C(=O)N1CC[C@H]2C[C@H](c3ccncn3)O[C@@H]2C1`, the cytotoxicity at 70.5 h is -14.1%.

Turning to `Cc1nc2cc(=O)[nH]n2c(C)c1CC(=O)NCc1ccoc1`, the cytotoxicity at 70.5 h is -1.36%.

On to `CC(C)(C)c1nc(CC(=O)NCCC(=O)Nc2ccncc2)cs1`, for which the cytotoxicity at 70.5 h came out at 5.09%.

On to `CSCC[C@H](NC(=O)CCn1ccc2c(Cl)cccc21)C(=O)O`, for which the cytotoxicity at 70.5 h is -2.74%.

`N#CC1(C(=O)NCC2CCC3(CCNCC3)O2)CC1` (centres undefined): the cytotoxicity at 70.5 h is 20%.

As for `Cc1cc(CN2CCN(CC3CC3)[C@@H]3CS(=O)(=O)C[C@@H]32)cc(C)c1O`, the cytotoxicity at 70.5 h is -2.43%.

For the molecule `CCc1nc(CN(CC(N)=O)C(C)C)cs1`, the cytotoxicity at 70.5 h turned out to be 18.1%.

With `CCn1cc(CN2CCC(CN3CCCCC3)CC2)cc1C#N`, the cytotoxicity at 70.5 h came to 4.33%.

In the case of `O=C(NCc1ccccc1CO)Nc1ccc2c(c1)CCC2`, the cytotoxicity at 70.5 h is -1.72%.

With `Cc1ccoc1C(=O)NC1CCN(Cc2cccc3ccccc23)CC1`, the cytotoxicity at 70.5 h was determined as 1.33%.

For `CC(O)CN1CCN(C(=O)c2cc3ccccc3n2C)CC1` (centres undefined), the cytotoxicity at 70.5 h came to 14.8%.

On to `Cc1ccc(Nc2nccc(C3CCN(C(=O)CO)C3)n2)nc1` (centres undefined), for which the cytotoxicity at 70.5 h was -11.2%.

Regarding `COCC(=O)N1CCC(c2cc3ncccc3c(O)n2)CC1`, the cytotoxicity at 70.5 h is -7.25%.

Consider `Cc1cnn(CC2CCCN2C(=O)CN(C)C2CC2)c1` (centres undefined), for which the cytotoxicity at 70.5 h was -11.8%.

For `Cc1ccccc1OC1CCN(S(=O)(=O)c2c(C)n[nH]c2C)CC1`, the cytotoxicity at 70.5 h is -6.57%.

Turning to `CC(C)c1noc(CNC2CCCN(Cc3noc(C4CC4)n3)C2)n1` (centres undefined), the cytotoxicity at 70.5 h was -11.4%.

For `OC(CN(Cc1ccccc1)Cc1ccccn1)c1cccs1` (centres undefined), the cytotoxicity at 70.5 h is -11%.

Regarding `Cc1cc(CC(C)NC(=O)Cc2cc(F)ccc2C)[nH]n1` (centres undefined), the cytotoxicity at 70.5 h was 3.68%.

As to `COc1cccc2ccc(N3CCC(O)(c4ccc(C)cn4)CC3)nc12`, the cytotoxicity at 70.5 h is -21.5%.

Turning to `Cc1nc(CN2CCCN(CC(=O)N(C)C(C)(C)C#N)CC2)no1`, the cytotoxicity at 70.5 h was -10.4%.

As for `CC(NC(=O)NCCCO)c1ccc2c(c1)OCCO2` (centres undefined), the cytotoxicity at 70.5 h was -10.1%.

For `COc1cc(NCCNC(=O)c2cscc2C)cc(OC)c1`, the cytotoxicity at 70.5 h was -2.4%.

For `Cc1cc(C(=O)N2CCC3(CC2)C(=O)N(C)CCN3CC(C)C)c(C)o1`, the cytotoxicity at 70.5 h is -10.1%.

Take `CN1CSC[C@H]1C(=O)N1CCN(Cc2cccc(Cl)c2)CC1`: the cytotoxicity at 70.5 h is -5.08%.

Take `COCCCC(=O)Nc1cc(Cl)c(Cl)cn1`: the cytotoxicity at 70.5 h is 24.5%.

For the molecule `CC1(C2CCN(CCCC(=O)O)CC2)CN(Cc2ccccc2)C(=O)O1` (centres undefined), the cytotoxicity at 70.5 h was determined as 2.48%.

For the molecule `O=C(NC1CCc2c(ccc(=O)n2CC2CC2)C1)c1cscn1` (centres undefined), the cytotoxicity at 70.5 h was 18.1%.

For `Cc1cc(F)cc2c(N3CCS(=O)(=O)CC3)c(C#N)cnc12`, the cytotoxicity at 70.5 h worked out at 0.465%.

Turning to `CCN(CC)C(=O)[C@@H]1C[C@H](NC(=O)c2ccn(C(C)(C)C)c2)CN1C`, the cytotoxicity at 70.5 h was -1.68%.

With `O=S(=O)(NCC1CCN(c2cnccn2)CC1)c1c(F)cccc1F`, the cytotoxicity at 70.5 h was -9.72%.

Regarding `CC(=O)N1CCCN(C(=O)CCc2c(C)noc2C)CC1`, the cytotoxicity at 70.5 h is -16.4%.

For `CN(CC1CCOCC1)C1CCCN(c2ccccn2)C1` (centres undefined), the cytotoxicity at 70.5 h is -7.08%.

With `CN1CC(=O)N(c2ccccc2)CC12CCN(C(=O)c1cnccn1)C2` (centres undefined), the cytotoxicity at 70.5 h stood at 22.8%.

On to `CN(C)Cc1ccnc(C2CN(Cc3c(F)cccc3F)CCO2)n1` (centres undefined), for which the cytotoxicity at 70.5 h is -6.34%.

For `CN1CC(c2ccccc2)CC12CCN(C(=O)c1cncc(Cl)c1)CC2` (centres undefined), the cytotoxicity at 70.5 h is -8.59%.

Source of the values: ChEMBL document CHEMBL3507680, “University of Dundee, Gates Library screen for HepG2 cell viability”.
